Reference: patent US5436273A, “Psychoactive propargylamine derivatives used in the treatment of anxiety, psychotic states or aggression” (Lowchol Scientific, Inc., priority 1993, dated 1995)
Entries after “also recorded” stand apart in the source; their conditions may differ.

Tests used:
[1] = test system: motor coordination (rotarod) in mice; conditions: mouse, in vivo
[2] = test system: aggressive behavior of combative mice; experiment: Persistence of antiaggressive effect; format: in vivo; conditions: 10 mg/kg i.p. daily for five days, FIG. 3
From the text: 12. Persistence of Antiaggressive Effect

[3] = Acute toxicity test; conditions: mouse, in vivo, ip
Description: CD #1 mice (20-30 g) are used for this test. The animals are individualy housed in glass beakers for a 2 hour period of acclimatization without food and water.

[4] = test system: aggressive behavior of combative mice; experiment: Duration of antiaggressive effect; format: in vivo; conditions: single dose 10 mg/kg i.p., FIG. 2
From the text: 11. Duration of Antiaggressive Effect

[5] = test system: conditioned avoidance response in rats; experiment: Inhibition of conditioned avoidance response in rats; format: in vivo, Sprague Dawley rats
From the text: 6. Inhibition of Conditioned Avoidance Response in Rats
Male Sprague Dawley rats (200-250 g) are trained to avoid an electric foot shock, by continuously changing room with the appropriate visuals and auditory signals, in an automatic 2-way conditioned avoidance apparatus (Coulbourn Instrument Co.). Only the animals that perform at least a 70% avoidance (3 successive training sessions) are kept for the experiment.
The day of the experiment, the selected animals are submitted to a pre-treatment control session. The compound to be studied is then administered i.p. and the animals are placed back in the apparatus for evaluation 30 minutes later. Diazepam was used as a standard.

[6] = Plasma concentration in combative mice as a function of time; format: in vivo; conditions: 10 mg/kg i.p.
Description: A calibration curve is established using mouse blood plasma. Two samples are used for each concentration. The method used is as follows.
200 μl of plasma are taken and denaturated with 400 μl of acetonitrile. 500 μl of the clear liquid is taken.
A derivative is made with 50 μl of orthophthalaldehyde (0.05M) in a test tube and 25 μl of the solution is injected into a high performance liquid chromatography apparatus after 30 minutes.
3-Amino-4-pentyne is used as standard.
The following equation describes the calibration curve: […]
The concentration of compound N^o 3 in the plasma is given by the following equation: [formula] B. Evaluation in Vivo
The pharmacokinetic profile is established in combative mice.
(§1) The mice are placed together, in pairs, for 5 minutes. This pairing is performed 10, 25, 55, 85 and 115 minutes after the administration of compound N^o 3. One minute after each of the 5 minute periods of placing the animals together, three pairs of animals are anesthetized with ether and guillotined in order to determine the concentration of compound N^o 3 in the plasma. The plasma sample is prepared by centrifugation (16,000 G) of 800 μl of blood to which 50 μl of EDTA Na4 (0.1M) is added. The inhibition of aggressive behavior at the different times in which the animals are placed together and the number of pairs evaluated is shown in the following Table: […]

[7] = test system: exploratory behavior in rats; experiment: Inhibition of exploratory behavior in rats (hole poking); format: in vivo, Sprague-Dawley rats; conditions: rats
Description: 8. Inhibition of Exploratory Behavior in Rats (Hole Poking).
This test is done with Sprague-Dawley male rats of about 300 g. Activity is evaluated with a […] XYZ activity cage connected to a […] […] DCM-4. A perforated plate (16 holes of 2-5 cm diameter) is placed in the enclosure and on the activity case to register vertical activity. The number of times the rat placed his snout into the holes during a 10 minute period is recorded. The test was started 30 minutes after the interperitoneal injection of the compound to be studied.
The results which are reported in Table 8 are expressed in terms of the dose required to diminish by 50% the exploratory behavior, with reference to animals injected with the carrier only. Diazepam and buspirone are used as standards.

[8] = Effect on body temperature in mice; format: in vivo, CD #1 mice; conditions: for Temp. Difference from Control: one hour
Description: 9. Effect on Body Temperature in Mice
Female CD #1 mice (20-30 g) are used. Rectal temperature is recorded before and one hour after s.c. administration of the compound to be studied (N=8/doses×4 doses). The solvent used is sterile water for intravenous injection.
The results which are reported in Table 9 are expressed in terms of the variation of temperature for different doses. Buspirone was tested on Sprague Dawley rats.

[9] = Vapor pressure at room temperature; format: physicochemical; conditions: free base
[10] = test system: righting reflex / ethanol narcosis in mice; experiment: Potentiation of sleeping time induced by ethanol in mice; format: in vivo, CD #1 mice; conditions: for percentage of animals displaying a loss of the righting reflex: with ethanol
Description: 7. Potentiation of Sleeping Time Induced by Ethanol in Mice
This test was done with male CD #1 mice of 25-35 g. The mice are injected intraperitoneally (8 mice per dose). A subhypnotic dose of ethanol (12 ml/kg of 50% ethanol solution) is administered orally 30 minutes later.
The loss of the righting reflex is evaluated, for each animal, 30 minutes after the administration of the alcohol. It is considered that there is a potentialization of ethanol narcosis if the righting time exceeded 30 seconds.
The results which are reported in Table 7 are expressed in terms of the percentage of animals displaying a loss of the righting reflex versus the administered dose. Chlorpromazine (5 mg/kg i.p.) is used as a standard.

[11] = test system: aggressive behavior in combative mice; experiment: Inhibition of aggressive behavior in combative mice at various times (correlation with plasma concentration); format: in vivo; conditions: 10 mg/kg i.p.; for inhibition at 10 mg/kg: Mus musculus, ip
Description: as §1

[12] = in vivo; conditions: mouse, ip

C#CC(C)N (stereo not drawn) [Compound 3, 2-Amino-3-butyne]
neurotoxicity / motor activity (in words) [1]: much less neurotoxic than buspirone (rot TD50 =135 mg/kg p.o.) and diazepam | persistence of inhibitory effect on aggressive behavior (in words) [2]: also persists when the compound is administered on a daily basis | LD50 [3]: 1370 mg/kg | duration of inhibitory effect on aggressive behavior [4]: approximately 4 hours | conditioned avoidance response, first exposure ([5]; 10 mg/kg i.p., first exposure): 3% | conditioned avoidance response, re-exposed ([5]; 10 mg/kg i.p., re-exposed): 29% | ED50 ([5]; Rattus norvegicus, ip, 0.5 h, calculated with repeated exposure, r^2 = 0.43): 21.5 ± 11.2 mg/kg | inhibition of conditioned avoidance response (in words) ([5]; rats): very active at first; also recorded: much less active if re-; also recorded: inhibit conditioned avoidance in rats, but are less active than diazepam; also recorded: loss of activity in the case of compound N^o 3 after the first exposure to the drug; also recorded: does not seem to impair the animal's sensory discrimination at doses 2 to 3 times above that which produces a quieting effect with repeated exposure | elimination / plasma level (in words) ([6]; FIG. 1): elimination of compound N^o 3 is very rapid; also recorded: not detectable, by the method used, 90 minutes after the injection | concentration at […] ([6]; mouse, plasma, ip, 15 min, N = 6, read-out: plasma concentration ± S.E.): 4800 ± 400 µM | concentration at 0.5 h ([6]; mouse, plasma, ip, 30 min, N = 6, read-out: plasma concentration ± S.E.): 2000 ± 200 µM | concentration at 1 h ([6]; mouse, plasma, ip, 60 min, N = 5, read-out: plasma concentration ± S.E.): 900 ± 200 µM | concentration at 1.5 h ([6]; mouse, plasma, ip, 90 min, N = 6, read-out: plasma concentration ± S.E.): < 5 µM | concentration at 2 h ([6]; mouse, plasma, ip, 120 min, N = 6, read-out: plasma concentration ± S.E.): < 5 µM | ED50 ([7]; Rattus norvegicus, ip, 0.5 h, i.p., 30 minutes, read-out: dose required to diminish by 50% the exploratory behavior): 4.6 ± 2.6 mg/kg | inhibition of exploratory behavior (in words) [7]: more potent, in this respect, than diazepam but they rapidly lose their ability to produce this effect after the first administration | Temp. Difference from Control ([8]; dose 10, s.c.): -2.6 | Temp. Difference from Control ([8]; dose 30, s.c.): -2.5 | Temp. Difference from Control ([8]; dose 100, s.c.): -4.1 | hypothermia (in words) ([8]; s.c.): slight, transient hypothermia comparable to that induced by buspirone | vapor pressure (in words) [9]: high vapor pressure at room temperature | percentage of animals displaying a loss of the righting reflex ([10]; 10 mg/kg i.p.): 50% | percentage of animals displaying a loss of the righting reflex ([10]; 30 mg/kg i.p.): 50% | percentage of animals displaying a loss of the righting reflex ([10]; 100 mg/kg i.p.): 25% | potentiation of ethanol (in words) ([10]; subhypnotic dose of ethanol, mice): active at t = 30 min; also recorded: potentiate the effect of a subhypnotic effect dose of ethanol | antiaggressive activity over time (in words) [11]: noticeable activity after a few minutes; also recorded: activity is maximal when the plasma concentration is no longer detectable | time of maximum antiaggressive activity [11]: 60 min | inhibition at 10 mg/kg ([11]; 0.5 h, 30 min, 12 pairs): 87.5% | inhibition at 10 mg/kg ([11]; 1 h, 60 min, 9 pairs): 100% | inhibition at 10 mg/kg ([11]; 1.5 h, 90 min, 3 pairs): 100% | inhibition at 10 mg/kg ([11]; 2 h, 120 min, 3 pairs): 100% | inhibition at 10 mg/kg ([11]; 15 min, 15 pairs): 75% | TD50 at 0.5 h [12]: 720 mg/kg
